In US9817000B2, “Method for identifying compounds that modulate a T2R taste receptor” (The Regents of the University of California, priority 1999, dated 2017):
One block for each compound: values may come before it.

What was measured:
[1] = biological target: T1, mGluR1 receptor (Rattus norvegicus, UniProt P23385); assay: FURA-2 [Ca2+]i imaging in HEK-293 cells with Gα15 and mGluR1 receptor; type: cell-based; settings: 20 μM
T1 construct: expressed in transfected cells; host or cells: HEK-293 cells containing Gα15
T1 sequence (P23385 19-1199): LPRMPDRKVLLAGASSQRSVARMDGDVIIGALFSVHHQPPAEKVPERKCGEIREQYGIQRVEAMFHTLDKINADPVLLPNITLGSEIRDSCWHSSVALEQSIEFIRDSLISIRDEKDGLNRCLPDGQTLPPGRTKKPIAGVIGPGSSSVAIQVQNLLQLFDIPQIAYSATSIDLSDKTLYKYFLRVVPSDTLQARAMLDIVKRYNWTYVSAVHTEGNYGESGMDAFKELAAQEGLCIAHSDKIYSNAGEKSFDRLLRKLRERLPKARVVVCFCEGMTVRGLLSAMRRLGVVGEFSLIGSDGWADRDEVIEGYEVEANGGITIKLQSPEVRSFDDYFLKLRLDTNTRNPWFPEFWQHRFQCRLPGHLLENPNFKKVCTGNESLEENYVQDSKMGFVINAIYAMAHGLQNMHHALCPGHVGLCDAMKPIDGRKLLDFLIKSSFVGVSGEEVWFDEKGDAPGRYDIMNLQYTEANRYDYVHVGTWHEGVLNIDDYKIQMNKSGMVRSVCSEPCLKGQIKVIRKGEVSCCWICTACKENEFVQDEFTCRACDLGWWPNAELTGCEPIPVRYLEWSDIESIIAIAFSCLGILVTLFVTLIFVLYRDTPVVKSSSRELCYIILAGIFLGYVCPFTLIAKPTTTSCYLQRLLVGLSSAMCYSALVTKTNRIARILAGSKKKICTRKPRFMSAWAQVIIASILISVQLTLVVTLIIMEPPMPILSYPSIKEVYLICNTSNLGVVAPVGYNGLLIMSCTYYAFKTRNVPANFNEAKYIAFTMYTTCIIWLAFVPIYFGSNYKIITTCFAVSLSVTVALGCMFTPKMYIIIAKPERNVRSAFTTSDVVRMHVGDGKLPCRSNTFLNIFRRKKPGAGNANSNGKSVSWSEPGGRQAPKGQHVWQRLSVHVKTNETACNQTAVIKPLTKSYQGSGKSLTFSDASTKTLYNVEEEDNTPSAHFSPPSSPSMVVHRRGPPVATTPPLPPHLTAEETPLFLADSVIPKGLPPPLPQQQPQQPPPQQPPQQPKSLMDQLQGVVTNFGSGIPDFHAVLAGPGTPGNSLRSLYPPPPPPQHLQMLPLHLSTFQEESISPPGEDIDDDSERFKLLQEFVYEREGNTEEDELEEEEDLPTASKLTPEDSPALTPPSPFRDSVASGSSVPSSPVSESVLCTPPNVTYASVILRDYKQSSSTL
Description: (§1) In this system, receptor activation leads to increases in intracellular calcium [Ca2+]i, which can be monitored at the single cell level using the FURA-2 calcium-indicator dye (Tsien et al., Cell Calcium 6:145-157 (1985)). To test and optimize Gα15 coupling, two different GPCRs, a Gαi-coupled μ-opioid receptor (Reisine, Neuropharm. 34:463-472 (1995)) and a Gαq-coupled mGluR1 receptor (Masu et al., Nature 349:760-765 (1991)), were used. Transfection of these receptors into HEK-293 cell produced robust, agonist-selective, and Gα15-dependent Ca^2+ responses (FIG. 1).

[2] = biological target: T2, mT2R5 (Mus musculus, UniProt Q9JKT4); assay: FURA-2 [Ca2+]i imaging in HEK-293 cells expressing Gα15 and rho-mT2R5 (taster, DBA/2 allele); type: cell-based
T2 construct: expressed in transfected cells; host or cells: modified HEK-293 cells (PEAKrapid) expressing Gα15; pEAK10 vector
T2 sequence (Q9JKT4 1-300): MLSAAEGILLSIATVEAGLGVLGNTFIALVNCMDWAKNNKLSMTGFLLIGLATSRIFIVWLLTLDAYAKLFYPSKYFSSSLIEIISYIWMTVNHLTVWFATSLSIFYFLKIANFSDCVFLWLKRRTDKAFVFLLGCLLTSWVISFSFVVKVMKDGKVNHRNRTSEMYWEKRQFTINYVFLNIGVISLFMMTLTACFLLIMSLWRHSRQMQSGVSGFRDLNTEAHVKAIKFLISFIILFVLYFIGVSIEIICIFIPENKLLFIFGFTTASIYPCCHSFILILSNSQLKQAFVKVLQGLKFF
Description: as §1
(§2) A number of studies have shown that many GPCRs, in particular sensory receptors, require specific “chaperones” for maturation and targeting through the secretory pathway (Baker et al., Embo J 13:4886-4895 (1994); Dwyer et al., Cell 93:455-466 (1998)). Recently, Krautwurst et al. (Cell 95:917-926 (1998)) generated chimeric receptors consisting of the first 20 amino acids of rhodopsin and various rodent olfactory receptors. These were targeted to the plasma membrane and functioned as odorant receptors in HEK-293 cells. To determine whether rhodopsin sequences can also help target T2Rs to the plasma membra, rhodopsin-T2R chimeras (rho-T2Rs) were constructed. […] Similar results were obtained with 11 human and 16 rodent T2Rs (see below). To further enhance the level of T2R expression, rho-T2Rs were placed under the control of a strong EF-1α promoter, and introduced as episomal plasmids into modified HEK-293 cells expressing Gα15 (pEAKrapid cells).
(§3) A bridge overlap PCR extension technique was used to generate rho-T2R chimeras, which contain the first 39 amino acids of bovine rhodopsin in frame with human and rodent T2R coding sequences (Mehta and Singh, Biotechniques 26:1082-1086 (1999). All receptors were cloned into a pEAK10 mammalian expression vector (Edge Biosystems, MD). Modified HEK-293 cells (PEAK^rapid cells; Edge BioSystems, MD) were grown and maintained at 37° C. in UltraCulture medium (Bio Whittaker) supplemented with 5% fetal bovine serum, 100 μg/ml Gentamycin sulphate (Fisher), 1 μg/ml Amphotericin B and 2 mM GlutaMax I (Lifetechnologies). For transfection, cells were seeded onto matrigel coated 24-well culture plates or 35 mm recording chambers. After 24 h at 37° C., cells were washed in OptiMEM medium (Lifetechnologies) and transfected using LipofectAMINE reagent (Lifetechnologies). Transfection efficiencies were estimated by co-transfection of a GFP reporter plasmid, and were typically >70%. Immunofluoresence staining, and activity assays were performed 36-48 h after transfection.
(§4) Transfected cells were washed once in Hank's balanced salt solution with 1 mM sodium pyruvate and 10 mM HEPES, pH 7.4 (assay buffer), and loaded with 2 μM FURA-2 AM (Molecular Probes) for 1 h at room temperature. The loading solution was removed and cells were incubated in 200 μl of assay buffer for 1 h to allow the cleavage of the AM ester. For most experiments, 24-well tissue culture plates containing cells expressing a single rho-T2R were stimulated with 200 μl of a 2× tastant solution (see next section). [Ca^2+]i changes were monitored using a Nikon Diaphot 200 microscope equipped with a 10×/0.5 fluor objective with the TILL imaging system (T.I.L.L Photonics GmbH). Acquisition and analysis of the fluorescence images used TILL-Vision software. Generally, [Ca^2+]i was measured for 80-120 s by sequentially illuminating cells for 200 ms at 340 nm and 380 nm and monitoring the fluorescence emission at 510 nm using a cooled CCD camera. The F340/F380 ratio was analyzed to measure [Ca^2+]i.
(§5) Kinetics of activation and deactivation were measured using a bath perfusion system. Cells were seeded onto a 150 μl microperfusion chamber, and test solutions were pressure-ejected with a picospritzer apparatus (General Valve, Inc.). Flow-rate was adjusted to ensure complete exchange of the bath solution within 4-5 s. […]

[3] = biological target: T3, hT2R4 (Homo sapiens, UniProt Q9NYW5); assay: FURA-2 [Ca2+]i imaging in HEK-293 cells expressing Gα15 and rho-hT2R4; type: cell-based; settings: high concentrations
T3 construct: Full-length hT2Rs were isolated by PCR amplification of genomic DNA; expressed in transfected cells; host or cells: HEK-293 cells (PEAKrapid) expressing Gα15
T3 sequence (Q9NYW5 1-299): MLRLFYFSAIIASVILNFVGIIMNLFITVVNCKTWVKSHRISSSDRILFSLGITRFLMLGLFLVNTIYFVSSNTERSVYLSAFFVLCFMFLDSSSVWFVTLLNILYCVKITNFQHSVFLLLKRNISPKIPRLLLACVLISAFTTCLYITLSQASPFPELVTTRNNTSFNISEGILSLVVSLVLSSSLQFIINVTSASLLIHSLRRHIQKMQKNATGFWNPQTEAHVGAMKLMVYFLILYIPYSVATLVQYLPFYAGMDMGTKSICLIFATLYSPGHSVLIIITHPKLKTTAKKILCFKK
Description: as §1, §2, §3, §4, §5

[4] = biological target: T4, mT2R8 (Mus musculus, UniProt Q9JKT3); assay: FURA-2 [Ca2+]i imaging in HEK-293 cells expressing Gα15 and rho-mT2R8; type: cell-based; settings: high concentrations
T4 construct: expressed in transfected cells; host or cells: HEK-293 cells (PEAKrapid) expressing Gα15
T4 sequence (Q9JKT3 1-297): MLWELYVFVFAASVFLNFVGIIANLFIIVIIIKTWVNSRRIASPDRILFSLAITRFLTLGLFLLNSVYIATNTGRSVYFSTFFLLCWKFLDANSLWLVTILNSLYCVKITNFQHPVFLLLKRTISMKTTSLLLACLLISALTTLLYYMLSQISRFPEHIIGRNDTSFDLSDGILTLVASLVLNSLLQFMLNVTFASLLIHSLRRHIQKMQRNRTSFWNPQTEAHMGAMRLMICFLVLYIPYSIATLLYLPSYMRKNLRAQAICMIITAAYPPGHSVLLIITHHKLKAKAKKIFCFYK
Description: as §1, §2, §3
as §4, with “For most experiments, 24-well tissue culture plates containing cells expressing a single rho-T2R were stimulated with 200 μl of a 2× tastant solution (see next section).” left out
Kinetics of activation and deactivation were measured using a bath perfusion system. […]

[5] = biological target: T5, mT2R5 coupling to gustducin (Mus musculus, UniProt Q9JKT4); assay: Tastant-induced GTPγS binding to gustducin with insect cell membranes containing rho-mT2R5; type: biochemical; settings: 1 mM
T5 construct: infectious Bacmid containing rhodopsin tagged mT2R5 (DBA/2-allele) was produced using the Bac-to-Bac system; rhodopsin tag (rho); made in house; host or cells: insect larval cells infected with recombinant Bacmid (Bac-to-Bac baculovirus system); membrane preparation
T5 sequence (Q9JKT4 1-300): T2 sequence (Q9JKT4 1-300)
Method: To investigate the selectivity of T2R-G-protein coupling, mT2R5 was chosen for study because its activation by cycloheximide recapitulates mouse taste responses. Rho-tagged mT2R5 and gustducin were prepared using a baculovirus expression system. mT2R5-containing membranes were incubated with various purified G-proteins, including gustducin, and measured tastant-induced GTP-γS binding (Hoon et al., Biochem J 309:629-636 (1995)). Specifically, infectious Bacmid containing rhodopsin tagged mT2R5 (DBA/2-allele) was produced using the Bac-to-Bac system (Lifetechnologies, MD). Insect larval cells were infected for 60 h with recombinant Bacmid and membranes were prepared as described previously (Ryba and Tirindelli, J Biol Chem, 270:6757-6767 (1995)). Peripheral proteins were removed by treatment with 8 M urea and membranes were resuspended in 10 mM HEPES pH7.5, 1 mM EDTA and 1 mM DTT. The expression of rho-mT2R5 was assessed by Western blot using mAb B6-30 and quantitated by comparison with known amounts of rhodopsin. Approximately 300 pmol of rho-mT2R5 could be obtained from 2×10^8 infected cells. Gustducin and Gβ1γ8 heterodimers were isolated as described previously (Hoon et al., Biochem J 309:629-636 (1995); Ryba and Tirindelli, J Biol Chem, 270:6757-6767 (1995)). Receptor-catalyzed exchange of GDP for GTPγS on gustducin and other G-protein α-subunits was measured in the presence of 10 nM rho-mT2R5, 100 μM GDP, and 20 μM Gβ1γ8. All measurements were made at 15-minute time points, and reflect the initial rate of GTPγS binding.

[6] = biological target: T6, μ opioid receptor (Homo sapiens, UniProt P35372); assay: FURA-2 [Ca2+]i imaging in HEK-293 cells with Gα15 and μ opioid receptor; type: cell-based; settings: 10 μM
T6 construct: expressed in transfected cells; host or cells: HEK-293 cells containing Gα15
T6 sequence (P35372 whole entry, species assumed): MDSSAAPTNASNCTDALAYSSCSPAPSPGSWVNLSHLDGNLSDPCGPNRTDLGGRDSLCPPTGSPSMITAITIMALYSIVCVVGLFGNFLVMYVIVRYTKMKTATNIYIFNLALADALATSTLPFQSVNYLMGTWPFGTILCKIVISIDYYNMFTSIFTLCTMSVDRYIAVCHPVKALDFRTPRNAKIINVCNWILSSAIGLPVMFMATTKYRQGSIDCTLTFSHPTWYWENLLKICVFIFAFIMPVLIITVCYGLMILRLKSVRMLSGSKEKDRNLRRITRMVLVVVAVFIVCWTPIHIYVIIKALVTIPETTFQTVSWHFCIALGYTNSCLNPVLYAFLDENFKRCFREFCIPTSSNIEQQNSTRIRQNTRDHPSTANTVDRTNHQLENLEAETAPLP
Description: as §1

SMILES: N[C@@]1(C(=O)O)CC[C@H](C(=O)O)C1 (racemic) [ACPD, trans (±) 1-amino-1,3 cyclopentane dicarboxylic acid]
[Ca2+]i response [1]: increase in [Ca2+]i

[Ca2+]i response to tastant ([2]; 10 mM): not observed
[Ca2+]i response [3]: also responded
receptor activation [4]: activated
gustducin activation [5]: not
SMILES: CCCc1cc(=O)[nH]c(=S)[nH]1 [6-n-propyl thiouracil]

SMILES: C[C@@H](NC(=O)[C@@H](N)Cc1ccc(O)cc1)C(=O)NCC(=O)N(C)[C@@H](Cc1ccccc1)C(=O)NCCO [DAMGO]
[Ca2+]i response [6]: increase in [Ca2+]i

SMILES: CN1[C@@H]2CC[C@H]1C[C@@H](OC(=O)C(CO)c1ccccc1)C2 (stereo partly shown) [atropine]
[Ca2+]i response to tastant ([2]; 5 mM): not observed
gustducin activation [5]: not

SMILES: COc1cc2c(cc1OC)[C@@]13CCN4CC5=CCO[C@H]6CC(=O)N2[C@H]1[C@H]6[C@H]5C[C@H]43 [brucine]
[Ca2+]i response to tastant ([2]; 5 mM): not observed
gustducin activation [5]: not

[Ca2+]i response to tastant ([2]; 2 mM): not observed
SMILES: O=C(O)/C=C/c1ccc(O)c(O)c1 [caffeic acid]

SMILES: Cn1c(=O)c2c(ncn2C)n(C)c1=O [caffeine]
gustducin activation [5]: not

SMILES: NC(=S)Nc1ccccc1 [phenyl thiocarbamide]
[Ca2+]i response to tastant ([2]; 3 mM): not observed
gustducin activation [5]: not

gustducin activation [5]: not
SMILES: C=C[C@H]1C[N@@]2CC[C@H]1C[C@H]2[C@H](O)c1ccnc2ccc(OC)cc12 [quinine]

[Ca2+]i response to tastant ([2]; 10 mM): not observed
gustducin activation [5]: not
SMILES: O=C1NS(=O)(=O)c2ccccc21 [saccharin]

[Ca2+]i response to tastant ([2]; 3 mM): not observed
gustducin activation [5]: not
SMILES: CC(=O)OC[C@H]1O[C@@](COC(C)=O)(O[C@H]2O[C@H](COC(C)=O)[C@@H](OC(C)=O)[C@H](OC(C)=O)[C@H]2OC(C)=O)[C@@H](OC(C)=O)[C@@H]1OC(C)=O [sucrose octaacetate]
